Source: patent US20120115151A1, “METHOD FOR TESTING A SUBJECT THOUGHT TO BE PREDISPOSED TO HAVING METASTATIC CANCER USING DELTA133P53BETA” (CENTRE NATIONAL DE LA RECHERCHE SCIENTIFIQUE (CNRS), priority 2009, published 2012)

Test system: hct116 cells transfected with GFP-tagged Δ133p53 isoforms
Assay: Matrigel Transwell invasion assay in the presence of the ROCK inhibitor
Format: cell-based
Conditions: Y27632 at 10 μM; cells expressing Δ133p53 isoforms invading through Matrigel
Protocol: Y27632 was purchased from calbiochem and was used at 10 μM in all experiments. The quantification of cell invasion was carried out in Transwell cell culture chambers containing fluorescence-blocking polycarbonate porous membrane inserts (Fluoroblock; #351152; BD Biosciences; pore size 8 μm). 100 μl of 2 mg/mL Matrigel with reduced growth factors (a commercially prepared reconstituted BM from Englebreth-Holm-Swarm tumours, #354230; BD Biosciences) were prepared in a Transwell. Cells were transfected and treated or not with Y27632 as monolayers before trypsinization and plating (10·10^4) in 2% FCS containing media on top of a thick layer (around 500 μm) of Matrigel contained within the upper chamber of a Transwell. Controls were left untreated. The upper and lower chambers were then filled with respectively 2% FCS containing media and media with 10% FCS, thus establishing a soluble gradient of chemo-attractant that permits cell invasion throughout the Matrigel. Cells were allowed to invade at 37° C., 5% CO2 through the gel before fixing for 15 min in 3.7% formaldehyde. Cells that had invaded through the Matrigel were detected on the lower side of the filter by GFP fluorescence and counted for cell number. All the surface of the filter is counted and each assay was performed twice in triplicate for each condition. […]

With `C[C@@H](N)[C@H]1CC[C@H](C(=O)Nc2ccncc2)CC1` [Y27632] the “invasiveness of transfected cells” value was “highly reduced”.
